Data from patent US20230017786A1, “DEXTR[…] A DISEASE-MODIFYING TREATMENT FOR NEUROPSYCHIATRIC DISORDERS AND DISEASES” (priority 2020, published 2023).
Several values for one entry are separate records, joined by “and”; a condition that tells them apart may be missing. Identical values can stand only once. Counter-ions that a name gives are not always drawn.

Experiments:
Assay type in all cases: cell-based
[1] = tested on: diheteromeric human recombinant NMDAR containing GluN1 plus GluN2A, GluN2B, GluN2C or GluN2D; assay: FLIPR calcium assay, statements for all four NMDAR subtypes together; settings: for profile on L-glutamate CRC: 6 test item concentrations
Source text: An operational equation for allosteric modulators (Leach K, Sexton P M and Christopoulos A, Allosteric GPCR modulators: taking advantage of permissive receptor pharmacology, Trends Pharmacol. Sci. 28: 382-389, 2007; Kenakin T P, Overview of receptor interaction of agonists and antagonists, Curr. Protoc. Pharmacol. Chapter 4: Unit 4.1, 2008, Kenakin T P, Biased signalling and allosteric machines: new vistas and challenges for drug discovery, Br. J. Pharmacol. 165: 1659-1669, 2012) was created in Prism 8 (GraphPad) software to estimate KB and a parameters for every test item, with the assumption that, as a pore blocker, every test item would be able to produce a compete blockade of agonist response, at sufficiently high concentration: […]

[2] = target: T1, human NMDA receptor GluN1-GluN2A (Homo sapiens, UniProt Q05586+Q12879); assay: FLIPR calcium assay, test item effect on L-glutamate CRC, GluN1-GluN2A-CHO
T1 construct: expressed in transfected cells; host or cells: CHO
T1 sequence (Q12879 23-1464, other chains not shown): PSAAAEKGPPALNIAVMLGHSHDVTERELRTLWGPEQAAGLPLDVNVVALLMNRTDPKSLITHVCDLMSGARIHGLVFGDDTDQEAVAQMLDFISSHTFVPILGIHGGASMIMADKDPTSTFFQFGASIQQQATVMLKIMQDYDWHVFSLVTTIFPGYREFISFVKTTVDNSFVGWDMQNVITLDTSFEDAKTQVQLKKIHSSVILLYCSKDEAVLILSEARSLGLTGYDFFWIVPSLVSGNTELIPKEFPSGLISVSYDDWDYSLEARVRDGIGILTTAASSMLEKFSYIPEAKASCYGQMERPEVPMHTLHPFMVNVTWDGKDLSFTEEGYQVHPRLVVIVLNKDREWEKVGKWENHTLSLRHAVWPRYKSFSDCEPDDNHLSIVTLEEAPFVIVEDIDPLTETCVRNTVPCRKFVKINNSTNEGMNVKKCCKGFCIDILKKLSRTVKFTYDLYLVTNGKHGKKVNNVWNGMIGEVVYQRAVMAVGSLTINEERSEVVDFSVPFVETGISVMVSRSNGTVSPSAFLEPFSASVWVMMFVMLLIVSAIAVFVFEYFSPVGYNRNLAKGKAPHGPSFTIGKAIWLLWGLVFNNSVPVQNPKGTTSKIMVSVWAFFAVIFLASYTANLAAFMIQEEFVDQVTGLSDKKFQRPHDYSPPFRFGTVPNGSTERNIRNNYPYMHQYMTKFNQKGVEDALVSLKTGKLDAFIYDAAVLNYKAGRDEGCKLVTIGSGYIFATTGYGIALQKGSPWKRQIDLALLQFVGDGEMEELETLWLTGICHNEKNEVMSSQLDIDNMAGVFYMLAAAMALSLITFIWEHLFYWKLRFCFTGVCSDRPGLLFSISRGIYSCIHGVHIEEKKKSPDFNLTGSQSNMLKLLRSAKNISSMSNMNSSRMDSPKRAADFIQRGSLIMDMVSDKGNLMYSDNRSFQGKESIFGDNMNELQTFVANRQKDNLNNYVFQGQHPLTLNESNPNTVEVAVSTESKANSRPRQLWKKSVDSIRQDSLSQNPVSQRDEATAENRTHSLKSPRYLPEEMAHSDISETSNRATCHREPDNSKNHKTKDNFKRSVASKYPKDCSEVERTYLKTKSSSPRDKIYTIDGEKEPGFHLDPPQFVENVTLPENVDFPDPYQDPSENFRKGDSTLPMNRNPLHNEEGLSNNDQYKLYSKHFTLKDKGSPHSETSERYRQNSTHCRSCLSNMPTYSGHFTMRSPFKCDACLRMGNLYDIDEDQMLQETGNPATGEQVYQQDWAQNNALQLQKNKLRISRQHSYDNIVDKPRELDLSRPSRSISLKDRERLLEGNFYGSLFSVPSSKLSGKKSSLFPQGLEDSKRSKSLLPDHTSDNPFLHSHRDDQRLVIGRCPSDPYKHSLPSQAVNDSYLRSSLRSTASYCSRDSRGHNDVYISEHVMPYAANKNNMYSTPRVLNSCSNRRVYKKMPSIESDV
Description: (§1) FLIPR determination of intracellular calcium level was used as a read-out for NMDAR activation.
(§2) 400× compound plate was stored at −20° C. until FLIPR experimental day.
(§3) 4× compound plate was generated from 400× compound plate by addition of up to 30 μl/well of compound buffer on FLIPR experimental day.
(§4) A FLIPR system was used to monitor intracellular calcium level in NMDAR cell lines, pre-loaded for 1 hour with Fluo-4, and then washed with assay buffer.
(§5) Y=Bottom+(Top−Bottom)/(1+10^((LogEC50−Log[A])*HillSlope))

[3] = target: T2, human NMDA receptor GluN1-GluN2B (Homo sapiens, UniProt Q05586+Q13224); assay: cell-based
T2 construct: expressed in transfected cells; host or cells: CHO
Description: as §1, §2, §3, §4, §5

[4] = target: T3, human NMDA receptor GluN1-GluN2C (Homo sapiens, UniProt Q05586+Q14957); assay: FLIPR calcium assay, test item effect on L-glutamate CRC, GluN1-GluN2C-CHO
T3 construct: expressed in transfected cells; host or cells: CHO
T3 sequence (Q14957 20-1233, other chains not shown): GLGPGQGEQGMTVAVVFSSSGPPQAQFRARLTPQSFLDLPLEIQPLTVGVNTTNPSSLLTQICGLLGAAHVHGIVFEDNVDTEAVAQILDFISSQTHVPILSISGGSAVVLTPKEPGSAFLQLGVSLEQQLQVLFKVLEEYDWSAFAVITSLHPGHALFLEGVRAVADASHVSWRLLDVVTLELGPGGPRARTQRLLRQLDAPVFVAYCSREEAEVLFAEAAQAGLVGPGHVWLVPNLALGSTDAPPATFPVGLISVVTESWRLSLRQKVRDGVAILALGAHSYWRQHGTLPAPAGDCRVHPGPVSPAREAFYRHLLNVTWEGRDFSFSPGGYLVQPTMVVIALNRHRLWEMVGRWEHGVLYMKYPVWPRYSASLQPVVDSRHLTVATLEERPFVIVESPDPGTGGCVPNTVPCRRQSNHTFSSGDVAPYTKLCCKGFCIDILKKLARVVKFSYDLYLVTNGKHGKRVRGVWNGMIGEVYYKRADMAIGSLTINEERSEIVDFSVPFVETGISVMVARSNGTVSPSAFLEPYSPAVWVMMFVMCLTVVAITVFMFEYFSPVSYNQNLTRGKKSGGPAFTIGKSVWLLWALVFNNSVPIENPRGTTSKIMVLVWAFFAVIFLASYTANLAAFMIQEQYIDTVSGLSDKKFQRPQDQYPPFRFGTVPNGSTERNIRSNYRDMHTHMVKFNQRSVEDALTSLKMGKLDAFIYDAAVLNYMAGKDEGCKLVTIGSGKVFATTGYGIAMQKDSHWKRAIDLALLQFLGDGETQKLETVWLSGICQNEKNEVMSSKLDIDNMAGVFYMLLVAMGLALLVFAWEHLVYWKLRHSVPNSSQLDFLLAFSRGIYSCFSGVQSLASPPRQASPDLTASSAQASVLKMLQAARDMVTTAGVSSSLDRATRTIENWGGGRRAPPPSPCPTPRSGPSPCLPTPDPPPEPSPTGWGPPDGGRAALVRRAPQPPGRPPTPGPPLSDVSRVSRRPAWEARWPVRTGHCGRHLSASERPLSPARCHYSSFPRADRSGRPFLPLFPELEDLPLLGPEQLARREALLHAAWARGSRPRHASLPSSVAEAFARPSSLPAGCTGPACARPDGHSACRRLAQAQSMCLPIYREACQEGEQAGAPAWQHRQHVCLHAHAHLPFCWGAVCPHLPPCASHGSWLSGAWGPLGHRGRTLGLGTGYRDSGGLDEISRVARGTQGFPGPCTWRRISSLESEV
Description: as §1, §2, §3, §4, §5

[5] = target: T4, human NMDA receptor GluN1-GluN2D (Homo sapiens, UniProt O15399+Q05586); assay: FLIPR calcium assay, test item effect on L-glutamate CRC, GluN1-GluN2D-CHO
T4 construct: expressed in transfected cells; host or cells: CHO
T4 sequence (O15399 28-1336, other chains not shown): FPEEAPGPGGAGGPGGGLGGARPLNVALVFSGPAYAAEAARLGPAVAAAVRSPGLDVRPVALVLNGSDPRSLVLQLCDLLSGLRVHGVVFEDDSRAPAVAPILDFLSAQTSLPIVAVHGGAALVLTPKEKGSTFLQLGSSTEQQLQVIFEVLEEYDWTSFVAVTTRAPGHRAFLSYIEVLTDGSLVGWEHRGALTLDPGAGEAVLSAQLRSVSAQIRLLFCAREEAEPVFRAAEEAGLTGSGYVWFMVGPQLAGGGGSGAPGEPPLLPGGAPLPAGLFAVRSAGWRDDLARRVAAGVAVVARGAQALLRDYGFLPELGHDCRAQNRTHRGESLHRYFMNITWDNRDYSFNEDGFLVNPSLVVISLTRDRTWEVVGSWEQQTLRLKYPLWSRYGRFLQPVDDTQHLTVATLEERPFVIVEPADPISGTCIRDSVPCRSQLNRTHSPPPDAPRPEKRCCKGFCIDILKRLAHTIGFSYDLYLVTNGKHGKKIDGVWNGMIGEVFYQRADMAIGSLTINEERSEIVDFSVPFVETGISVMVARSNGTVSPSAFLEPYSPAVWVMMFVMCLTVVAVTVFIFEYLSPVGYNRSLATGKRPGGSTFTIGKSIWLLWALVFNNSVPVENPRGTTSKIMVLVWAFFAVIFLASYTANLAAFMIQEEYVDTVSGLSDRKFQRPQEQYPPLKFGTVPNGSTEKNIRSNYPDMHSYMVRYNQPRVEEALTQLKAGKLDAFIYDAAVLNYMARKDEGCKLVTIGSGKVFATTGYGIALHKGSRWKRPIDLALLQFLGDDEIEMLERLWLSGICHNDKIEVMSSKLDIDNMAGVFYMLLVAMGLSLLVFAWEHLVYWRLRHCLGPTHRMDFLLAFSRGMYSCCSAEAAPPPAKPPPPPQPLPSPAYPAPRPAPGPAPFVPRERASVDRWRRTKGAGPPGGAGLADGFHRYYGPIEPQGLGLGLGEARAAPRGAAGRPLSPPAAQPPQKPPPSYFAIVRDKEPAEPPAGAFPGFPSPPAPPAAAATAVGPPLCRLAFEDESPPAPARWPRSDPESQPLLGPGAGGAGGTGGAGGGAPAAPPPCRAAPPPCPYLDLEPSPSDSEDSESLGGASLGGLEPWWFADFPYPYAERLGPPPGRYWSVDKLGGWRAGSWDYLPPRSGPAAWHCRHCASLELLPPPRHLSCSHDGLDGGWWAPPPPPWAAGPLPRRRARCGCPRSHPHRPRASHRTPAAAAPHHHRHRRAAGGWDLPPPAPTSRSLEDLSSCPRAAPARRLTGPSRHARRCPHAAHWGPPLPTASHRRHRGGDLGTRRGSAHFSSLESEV
Description: as §1, §2, §3, §4, §5

[6] = target: T1, human NMDA receptor GluN1-GluN2A; assay: FLIPR calcium assay, quinolinic acid, gentamicin, dextromethadone (Example 5 Part II), GluN1-GluN2A-CHO; set-up: calcium response (mean±SEM): unit not given here; settings: 10 μM glycine, GluN2A, n=42
Description: (§6) Quinolinic acid or gentamicin CRCs were also produced, in presence of 10 μM glycine.
(§7) Test items were evaluated in FLIPR for their ability to modulate, alone or in combination, calcium entry in presence of […], using four CHO cell lines expressing diheteromeric human NMDA receptor (NMDAR): GluN-/GluN2A-CHO, GluN1-GluN2B-CHO, GluN1-GluN2C-CHO, GluN1-GluN2D-CHO.
(§8) The first aim of the study was to evaluate quinolinic acid or gentamicin CRC effect in the presence of 10 μM glycine.
as §1
(§9) 400× compound plate was stored at −20° C. till FLIPR experimental day.
(§10) A 4× compound plate was generated from 400× compound plate by addition of up to 30 μl/well of compound buffer on FLIPR experimental day.
as §4
(§11) Y=Bottom+(Top−Bottom)/(1+10^((LogEC50−X)*HillSlope))
(§12) Test item CRC data were plotted by Prism 8 GraphPad software, in the different experimental conditions. And, column analysis, performed by Prism 8 GraphPad software, was one way ANOVA followed by Tukey's multiple comparisons test, with a single pooled variance.

[7] = target: T2, human NMDA receptor GluN1-GluN2B; assay: FLIPR calcium assay, quinolinic acid, gentamicin, dextromethadone (Example 5 Part II), GluN1-GluN2B-CHO; settings: 10 μM glycine, GluN2B, n=42
Description: as §6, §7, §8, §1, §9, §10, §4, §11, §12

[8] = target: T3, human NMDA receptor GluN1-GluN2C; assay: FLIPR calcium assay, quinolinic acid, gentamicin, dextromethadone (Example 5 Part II), GluN1-GluN2C-CHO; settings: 10 μM glycine; for calcium response (mean±SEM): GluN2C, n=42
Description: as §6, §7, §8, §1, §9, §10, §4, §11, §12

[9] = target: T4, human NMDA receptor GluN1-GluN2D; assay: FLIPR calcium assay, quinolinic acid, gentamicin, dextromethadone (Example 5 Part II), GluN1-GluN2D-CHO; settings: 10 μM glycine; for calcium response (mean±SEM): GluN2D, n=42
Description: as §6, §7, §8, §1, §9, §10, §4, §11, §12

[10] = operational analysis for allosteric modulators
[11] = L-glutamate alone, 10 μM glycine
[12] = calculated from EC50 and Hill slope

## (+)-MK 801 maleate
[1]
  profile on L-glutamate CRC: insurmountable profile
[1]; from estimated affinities
  GluN2 subunit preference: slight preference for GluN2B containing NMDAR
[1]; read-out: estimated KB with any/all of the NMDAR subtypes
  Kb: 50 nM and ≤ 50 nM

## CC12CC3CC(C)(C1)CC(N)(C3)C2 [Memantine, memantine hydrochloride]
[2]; [10]
  α, estimated cooperativity term: 0.15
[2]; with test item 49 nM
  L-glutamate CRC Bottom: 0.84
  L-glutamate CRC HillSlope: 1.1
  L-glutamate CRC LogEC50: −6.6
  L-glutamate CRC Top: 95
[2]; with test item 195 nM
  L-glutamate CRC Bottom: 1.3
  L-glutamate CRC HillSlope: 1.2
  L-glutamate CRC LogEC50: −6.5
  L-glutamate CRC Top: 92
[2]; with test item 781 nM
  L-glutamate CRC Bottom: 1.1
  L-glutamate CRC HillSlope: 1.2
  L-glutamate CRC LogEC50: −6.3
  L-glutamate CRC Top: 96
[2]; with test item 3.1 μM
  L-glutamate CRC Bottom: −0.58
  L-glutamate CRC HillSlope: 1.1
  L-glutamate CRC LogEC50: −6.4
  L-glutamate CRC Top: 83
[2]; with test item 12.5 μM
  L-glutamate CRC Bottom: −0.14
  L-glutamate CRC HillSlope: 1.3
  L-glutamate CRC LogEC50: −6.3
  L-glutamate CRC Top: 68
[2]; with test item 50 μM
  L-glutamate CRC Bottom: 1.5
  L-glutamate CRC HillSlope: 1.6
  L-glutamate CRC LogEC50: −6.1
  L-glutamate CRC Top: 36
[3]
  α, estimated cooperativity term: 0.094
[3]; hydrochloride
  L-glutamate CRC HillSlope: 2.1 and 1.5 and 1.1 and 1.7 and 1.4
[4]; [10]
  α, estimated cooperativity term: 0.10
[4]; with test item 49 nM
  L-glutamate CRC Bottom: 2.2
  L-glutamate CRC HillSlope: 1.4
  L-glutamate CRC LogEC50: −6.8
  L-glutamate CRC Top: 92
[4]; with test item 195 nM
  L-glutamate CRC Bottom: 2.0
  L-glutamate CRC HillSlope: 1.5
  L-glutamate CRC LogEC50: −6.9
  L-glutamate CRC Top: 85
[4]; with test item 781 nM
  L-glutamate CRC Bottom: 0.92
  L-glutamate CRC HillSlope: 1.4
  L-glutamate CRC Top: 76
[4]; with test item 3.1 μM
  L-glutamate CRC Bottom: 1.3
  L-glutamate CRC HillSlope: 1.2
  L-glutamate CRC LogEC50: −6.5
  L-glutamate CRC Top: 49
[4]; with test item 12.5 μM
  L-glutamate CRC Bottom: 2.5
  L-glutamate CRC HillSlope: 1.1
  L-glutamate CRC LogEC50: −6.4
  L-glutamate CRC Top: 20
[4]; with test item 50 μM
  L-glutamate CRC Bottom: 7.4
  L-glutamate CRC HillSlope: 6.1
  L-glutamate CRC LogEC50: −6.3
  L-glutamate CRC Top: 11
[5]; [10]
  α, estimated cooperativity term: 0.13
[5]; with test item 49 nM
  L-glutamate CRC Bottom: 5.1
  L-glutamate CRC HillSlope: 1.4
  L-glutamate CRC LogEC50: −7.3
  L-glutamate CRC Top: 94
[5]; with test item 195 nM
  L-glutamate CRC Bottom: −0.19
  L-glutamate CRC HillSlope: 1.3
  L-glutamate CRC LogEC50: −7.3
  L-glutamate CRC Top: 89
[5]; with test item 781 nM
  L-glutamate CRC Bottom: 1.1
  L-glutamate CRC HillSlope: 1.4
  L-glutamate CRC LogEC50: −7.2
  L-glutamate CRC Top: 87
[5]; with test item 3.1 μM
  L-glutamate CRC Bottom: −1.3
  L-glutamate CRC HillSlope: 1.3
  L-glutamate CRC LogEC50: −7.1
  L-glutamate CRC Top: 59
[5]; with test item 12.5 μM
  L-glutamate CRC Bottom: 1.4
  L-glutamate CRC HillSlope: 1.5
  L-glutamate CRC LogEC50: −6.7
  L-glutamate CRC Top: 26
[5]; with test item 50 μM
  L-glutamate CRC Bottom: −97133
  L-glutamate CRC HillSlope: 0.14
  L-glutamate CRC LogEC50: −37
  L-glutamate CRC Top: 19
[1]
  profile on L-glutamate CRC: insurmountable profile

## N[C@@H](CCC(=O)O)C(=O)O [L-glutamate, L-glutamic acid]
[2]; [11]
  Bottom: −0.62
  HillSlope: 1.0
  Span: 107
  Top: 106
[2]; [12]
  ECF, F=5: 160 nM
  ECF, F=10: 280 nM
  ECF, F=20: 630 nM
  ECF, F=30: 1.07 µM
  ECF, F=40: 1.67 µM
  ECF, F=90: 23 µM
  ECF, F=95: 48 µM
  ECF, F=99 (maximal effect): 250 µM
[3]
  Bottom: 1.7
  ECF, F=5: 140 nM
  ECF, F=10: 240 nM
  ECF, F=20: 450 nM
  ECF, F=30: 680 nM
  ECF, F=40: 950 nM
  ECF, F=90: 7.05 µM
  ECF, F=95: 13 µM
  ECF, F=99 (maximal effect): 45 µM
  HillSlope: 1.3
  Span: 109
  Top: 111
[4]; [11]
  Bottom: 0.88
  HillSlope: 1.5
  LogEC50: −7.1
  Span: 105
  Top: 106
[4]; [12]
  ECF, F=5: 120 nM
  ECF, F=10: 200 nM
  ECF, F=20: 350 nM
  ECF, F=30: 500 nM
  ECF, F=40: 660 nM
  ECF, F=90: 3.76 µM
  ECF, F=95: 6.19 µM
  ECF, F=99 (maximal effect): 19 µM
[5]; [11]
  Bottom: 5.3
  HillSlope: 1.6
  LogEC50: −7.5
  Span: 99
  Top: 105
[5]; [12]
  ECF, F=5: 54 nM
  ECF, F=10: 86 nM
  ECF, F=20: 140 nM
  ECF, F=30: 200 nM
  ECF, F=40: 260 nM
  ECF, F=90: 1.34 µM
  ECF, F=95: 2.14 µM
  ECF, F=99 (maximal effect): 6 µM and 6.01 µM
[6]; 0.04 μM L-Glu
  calcium response (mean±SEM): 1.7 ± 0.3
[6]; 0.2 μM L-Glu
  calcium response (mean±SEM): 22 ± 0.7
[6]; Table 41: 0.04 μM L-Glu
  calcium response (mean±SEM): 1.7 ± 0.3
[6]; Table 43: 0.2 μM L-Glu
  calcium response (mean±SEM): 22 ± 0.7
[7]; 0.04 μM L-Glu
  calcium response (mean±SEM): −0.9 ± 0.6
[7]; 0.2 μM L-Glu
  calcium response (mean±SEM): 18 ± 1.2
[7]; Table 41: 0.04 μM L-Glu
  calcium response (mean±SEM): 0.9 ± 0.6
[7]; Table 43: 0.2 μM L-Glu
  calcium response (mean±SEM): 18 ± 1.2
[8]; 0.04 μM L-Glu
  calcium response (mean±SEM): −1.2 ± 0.6
[8]; 0.2 μM L-Glu
  calcium response (mean±SEM): 30 ± 1.7
[8]; L-glutamate alone
  intracellular calcium increase elicited by 0.2 μM L-glutamate: 30±1.7%
[8]; Table 41: 0.04 μM L-Glu
  calcium response (mean±SEM): −1.2 ± 0.6
[8]; Table 43: 0.2 μM L-Glu
  calcium response (mean±SEM): 30 ± 1.7
[9]; 0.04 μM L-Glu
  calcium response (mean±SEM): 18 ± 1.2
[9]; 0.2 μM L-Glu
  calcium response (mean±SEM): 92 ± 2.0
[9]
  efficacy of 0.2 μM L-glutamate alone: 92±2.0%
[9]; Table 41: 0.04 μM L-Glu
  calcium response (mean±SEM): 18 ± 1.2
[9]; Table 43: 0.2 μM L-Glu
  calcium response (mean±SEM): 92 ± 2.0
